This assay concerns recurrent/metastatic breast cancer. The assay can be described thus: Inventor's previous clinical research, monotherapy of recurrent/metastatic breast cancer, liposome versus ordinary injection. It is filed as in vivo, human. To be noted: control group, 14 mg/m^2 every 4 weeks. On the procedure: The inventor's previous clinical research included mitoxantrone hydrochloride monotherapy in the treatment of recurrent/metastatic breast cancer. There were 30 cases in the experimental group and the control group respectively. […] The control group was given mitoxantrone hydrochloride injection in 14 mg/m^2, every 4 weeks as a cycle.

This note sets out measurements from patent US20240122875A1, “USE OF MITOXANTRONE HYDROCHLORIDE LIPOSOME” (CSPC ZHONGQI PHARMACEUTICAL TECHNOLOGY (SHIJIAZHUANG) CO., …, priority 2021, published 2024).

Where a name gives a salt, the structure may show the parent alone.

Under “2/30”, `O=C1c2c(O)ccc(O)c2C(=O)c2c(NCCNCCO)ccc(NCCNCCO)c21` [mitoxantrone hydrochloride injection, mitoxantrone hydrochloride] came in with an ORR of 6.7%. The compound also displayed a DCR (9/30) of 30%. The compound also registered a PR (30 cases) of 2 cases.
